Key:
[1] = biological target: 5-hydroxytryptamine receptor 2B (Homo sapiens, UniProt P41595); type: functional, cell-based
Histamine H1 receptor = Histamine H1 receptor (Homo sapiens, UniProt P35367)
[2] = biological target: Sodium-dependent noradrenaline transporter (Homo sapiens, UniProt P23975)
[3] = biological target: T1, 5-hydroxytryptamine receptor 3A (Homo sapiens, UniProt P46098); type: functional
T1 sequence (P46098 whole entry): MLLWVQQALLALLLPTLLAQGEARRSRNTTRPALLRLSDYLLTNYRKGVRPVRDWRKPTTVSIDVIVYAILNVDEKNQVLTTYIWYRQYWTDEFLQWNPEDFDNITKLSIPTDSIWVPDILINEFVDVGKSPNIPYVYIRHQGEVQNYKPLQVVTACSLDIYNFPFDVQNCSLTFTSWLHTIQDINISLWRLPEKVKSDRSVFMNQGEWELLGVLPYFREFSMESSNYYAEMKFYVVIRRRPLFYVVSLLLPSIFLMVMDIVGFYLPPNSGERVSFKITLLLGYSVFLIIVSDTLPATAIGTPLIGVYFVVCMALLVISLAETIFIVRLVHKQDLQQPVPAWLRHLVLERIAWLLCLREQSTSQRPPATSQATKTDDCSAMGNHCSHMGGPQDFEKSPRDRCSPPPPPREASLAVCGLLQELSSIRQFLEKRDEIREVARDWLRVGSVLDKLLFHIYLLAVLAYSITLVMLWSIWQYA

[4] = biological target: Gamma-aminobutyric acid receptor subunit alpha-1 (Rattus norvegicus, UniProt P62813)
Cannabinoid receptor 1 = Cannabinoid receptor 1 (Homo sapiens, UniProt P21554); type: functional, cell-based
Chain of Cannabinoid receptor 1 (P21554 whole entry): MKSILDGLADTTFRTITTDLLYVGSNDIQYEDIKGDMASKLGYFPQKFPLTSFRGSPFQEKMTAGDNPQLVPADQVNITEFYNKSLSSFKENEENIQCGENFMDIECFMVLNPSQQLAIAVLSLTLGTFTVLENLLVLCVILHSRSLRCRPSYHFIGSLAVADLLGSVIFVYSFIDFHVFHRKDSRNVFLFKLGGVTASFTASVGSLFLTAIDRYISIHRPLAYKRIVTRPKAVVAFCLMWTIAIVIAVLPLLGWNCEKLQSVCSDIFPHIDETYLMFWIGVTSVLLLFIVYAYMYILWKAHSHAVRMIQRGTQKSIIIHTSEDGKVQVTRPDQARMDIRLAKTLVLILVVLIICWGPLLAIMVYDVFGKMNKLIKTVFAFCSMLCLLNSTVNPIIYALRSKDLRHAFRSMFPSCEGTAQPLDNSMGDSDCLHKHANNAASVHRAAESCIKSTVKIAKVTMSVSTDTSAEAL

[5] = biological target: Delta-type opioid receptor (Homo sapiens, UniProt P41143)
Chain of Delta-type opioid receptor (P41143 whole entry): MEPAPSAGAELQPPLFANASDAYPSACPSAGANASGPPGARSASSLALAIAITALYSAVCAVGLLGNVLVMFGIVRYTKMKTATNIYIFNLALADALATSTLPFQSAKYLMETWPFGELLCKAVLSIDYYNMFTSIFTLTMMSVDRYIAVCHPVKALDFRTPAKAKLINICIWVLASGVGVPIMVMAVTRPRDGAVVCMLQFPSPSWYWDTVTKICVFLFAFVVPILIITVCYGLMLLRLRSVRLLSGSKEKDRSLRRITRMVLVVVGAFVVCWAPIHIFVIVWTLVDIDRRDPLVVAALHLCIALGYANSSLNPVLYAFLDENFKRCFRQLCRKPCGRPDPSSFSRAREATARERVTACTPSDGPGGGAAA

D(3) dopamine receptor = D(3) dopamine receptor (Homo sapiens, UniProt P35462)
Chain of D(3) dopamine receptor (P35462 whole entry): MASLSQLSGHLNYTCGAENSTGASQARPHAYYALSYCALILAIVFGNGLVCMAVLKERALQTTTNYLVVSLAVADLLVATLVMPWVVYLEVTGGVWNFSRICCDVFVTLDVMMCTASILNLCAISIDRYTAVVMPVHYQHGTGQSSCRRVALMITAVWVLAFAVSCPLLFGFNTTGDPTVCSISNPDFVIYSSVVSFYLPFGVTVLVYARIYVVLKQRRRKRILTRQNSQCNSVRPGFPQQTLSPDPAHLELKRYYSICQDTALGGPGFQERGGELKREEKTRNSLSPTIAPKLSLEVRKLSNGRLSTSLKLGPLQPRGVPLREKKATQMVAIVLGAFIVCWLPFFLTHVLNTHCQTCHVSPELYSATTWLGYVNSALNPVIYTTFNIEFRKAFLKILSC

[6] = biological target: cGMP-inhibited 3',5'-cyclic phosphodiesterase 3A (Homo sapiens, UniProt Q14432); type: functional
Chain of cGMP-inhibited 3',5'-cyclic phosphodiesterase 3A (Q14432 whole entry): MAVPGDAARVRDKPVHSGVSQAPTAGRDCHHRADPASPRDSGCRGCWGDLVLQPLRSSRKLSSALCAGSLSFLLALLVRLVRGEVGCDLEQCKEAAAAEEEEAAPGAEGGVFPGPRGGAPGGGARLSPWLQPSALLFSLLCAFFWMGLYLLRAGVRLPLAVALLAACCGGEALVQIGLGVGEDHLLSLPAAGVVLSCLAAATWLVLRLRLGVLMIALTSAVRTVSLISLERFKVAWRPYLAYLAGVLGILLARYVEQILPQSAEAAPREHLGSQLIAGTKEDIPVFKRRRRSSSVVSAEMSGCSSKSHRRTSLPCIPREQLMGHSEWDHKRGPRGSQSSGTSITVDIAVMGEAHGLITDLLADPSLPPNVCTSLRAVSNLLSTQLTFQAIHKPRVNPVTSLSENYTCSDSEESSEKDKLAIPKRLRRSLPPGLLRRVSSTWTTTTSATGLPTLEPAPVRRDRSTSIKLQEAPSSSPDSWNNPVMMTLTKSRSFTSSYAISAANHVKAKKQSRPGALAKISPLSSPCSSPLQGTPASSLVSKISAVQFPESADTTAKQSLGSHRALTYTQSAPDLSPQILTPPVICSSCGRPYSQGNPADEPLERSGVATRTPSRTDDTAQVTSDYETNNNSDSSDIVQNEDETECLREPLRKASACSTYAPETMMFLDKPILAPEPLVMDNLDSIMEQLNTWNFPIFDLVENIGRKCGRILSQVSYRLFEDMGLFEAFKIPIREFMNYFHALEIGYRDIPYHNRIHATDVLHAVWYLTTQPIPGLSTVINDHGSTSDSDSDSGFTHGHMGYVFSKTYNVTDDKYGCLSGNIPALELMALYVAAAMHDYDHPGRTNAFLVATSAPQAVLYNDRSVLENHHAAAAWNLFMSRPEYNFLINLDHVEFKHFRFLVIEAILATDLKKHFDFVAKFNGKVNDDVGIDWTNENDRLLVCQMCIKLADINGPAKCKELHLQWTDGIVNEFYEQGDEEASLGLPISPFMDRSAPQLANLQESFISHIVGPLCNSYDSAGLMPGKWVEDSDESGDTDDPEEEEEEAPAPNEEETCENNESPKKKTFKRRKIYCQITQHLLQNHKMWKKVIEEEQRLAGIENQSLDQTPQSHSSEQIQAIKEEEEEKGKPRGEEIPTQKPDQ

[7] = biological target: Glutamate receptor ionotropic, NMDA 1 (Rattus norvegicus, UniProt P35439)
Adenosine receptor A2a = Adenosine receptor A2a (Homo sapiens, UniProt P29274)
Chain of Adenosine receptor A2a (P29274 whole entry): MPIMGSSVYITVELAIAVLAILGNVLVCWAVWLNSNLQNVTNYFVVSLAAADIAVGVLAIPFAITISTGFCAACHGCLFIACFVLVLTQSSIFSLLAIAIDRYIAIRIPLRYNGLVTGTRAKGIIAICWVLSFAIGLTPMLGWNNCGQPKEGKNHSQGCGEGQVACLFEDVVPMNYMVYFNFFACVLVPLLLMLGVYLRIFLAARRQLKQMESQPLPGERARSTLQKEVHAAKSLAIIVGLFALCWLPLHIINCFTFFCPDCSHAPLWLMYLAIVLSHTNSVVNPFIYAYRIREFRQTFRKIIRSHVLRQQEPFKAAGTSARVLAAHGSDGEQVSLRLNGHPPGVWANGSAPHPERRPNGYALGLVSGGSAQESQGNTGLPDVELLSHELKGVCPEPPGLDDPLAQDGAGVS

[8] = biological target: T2, 5-hydroxytryptamine receptor 2C (Homo sapiens, UniProt P28335)
T2 sequence (P28335 whole entry): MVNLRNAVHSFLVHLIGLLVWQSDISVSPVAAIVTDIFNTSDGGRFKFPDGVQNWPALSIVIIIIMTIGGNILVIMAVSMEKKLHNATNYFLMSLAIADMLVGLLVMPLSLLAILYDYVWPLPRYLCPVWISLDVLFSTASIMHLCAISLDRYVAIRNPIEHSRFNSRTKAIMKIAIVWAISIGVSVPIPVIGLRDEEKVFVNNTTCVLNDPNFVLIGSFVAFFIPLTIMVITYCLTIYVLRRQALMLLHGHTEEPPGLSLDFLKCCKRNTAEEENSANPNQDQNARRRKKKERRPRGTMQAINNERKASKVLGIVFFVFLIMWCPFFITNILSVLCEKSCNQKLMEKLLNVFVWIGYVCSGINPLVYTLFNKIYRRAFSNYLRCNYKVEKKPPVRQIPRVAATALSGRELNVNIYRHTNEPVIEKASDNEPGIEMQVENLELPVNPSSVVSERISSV

[9] = biological target: T3, Alpha-2C adrenergic receptor (Homo sapiens, UniProt P18825); type: functional
T3 sequence (P18825 whole entry): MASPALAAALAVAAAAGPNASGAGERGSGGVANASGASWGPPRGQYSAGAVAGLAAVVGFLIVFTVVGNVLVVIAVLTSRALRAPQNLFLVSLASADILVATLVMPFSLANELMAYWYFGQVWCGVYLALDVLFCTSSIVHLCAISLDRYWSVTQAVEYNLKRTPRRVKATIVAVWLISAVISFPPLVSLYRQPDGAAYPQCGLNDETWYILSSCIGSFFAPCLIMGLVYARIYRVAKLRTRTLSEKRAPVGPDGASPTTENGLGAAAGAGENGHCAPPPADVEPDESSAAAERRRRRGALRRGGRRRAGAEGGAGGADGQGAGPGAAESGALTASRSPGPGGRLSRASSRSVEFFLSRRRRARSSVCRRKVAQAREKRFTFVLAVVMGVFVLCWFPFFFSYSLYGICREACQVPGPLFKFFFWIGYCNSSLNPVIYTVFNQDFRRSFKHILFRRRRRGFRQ

[10] = biological target: Kappa-type opioid receptor (Homo sapiens, UniProt P41145)
Chain of Kappa-type opioid receptor (P41145 whole entry): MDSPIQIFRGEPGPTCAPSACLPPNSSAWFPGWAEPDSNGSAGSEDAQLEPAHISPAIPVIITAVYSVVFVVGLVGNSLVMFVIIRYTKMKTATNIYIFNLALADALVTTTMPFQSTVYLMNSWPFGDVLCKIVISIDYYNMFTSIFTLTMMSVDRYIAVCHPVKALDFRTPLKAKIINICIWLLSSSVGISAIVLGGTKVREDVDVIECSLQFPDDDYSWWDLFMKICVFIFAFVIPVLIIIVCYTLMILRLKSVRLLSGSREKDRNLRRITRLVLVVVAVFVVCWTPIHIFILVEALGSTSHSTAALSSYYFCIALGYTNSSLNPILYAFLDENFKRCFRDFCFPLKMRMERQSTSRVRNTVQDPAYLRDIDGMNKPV
Note: assay procedure not described here.

Chain of Histamine H1 receptor (P35367 whole entry): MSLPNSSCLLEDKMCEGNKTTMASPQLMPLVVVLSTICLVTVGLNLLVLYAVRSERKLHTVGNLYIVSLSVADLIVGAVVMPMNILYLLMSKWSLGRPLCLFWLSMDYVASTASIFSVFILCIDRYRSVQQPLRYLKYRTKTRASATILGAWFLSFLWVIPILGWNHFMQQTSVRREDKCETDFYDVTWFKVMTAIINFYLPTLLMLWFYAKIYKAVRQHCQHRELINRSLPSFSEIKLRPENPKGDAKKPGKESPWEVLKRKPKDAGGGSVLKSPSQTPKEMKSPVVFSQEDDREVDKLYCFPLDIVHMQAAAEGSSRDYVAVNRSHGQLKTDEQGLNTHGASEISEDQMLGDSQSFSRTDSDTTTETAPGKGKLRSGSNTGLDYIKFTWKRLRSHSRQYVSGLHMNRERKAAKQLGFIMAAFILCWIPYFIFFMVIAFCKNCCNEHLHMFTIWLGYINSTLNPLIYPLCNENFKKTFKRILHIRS
Chain of Sodium-dependent noradrenaline transporter (P23975 whole entry): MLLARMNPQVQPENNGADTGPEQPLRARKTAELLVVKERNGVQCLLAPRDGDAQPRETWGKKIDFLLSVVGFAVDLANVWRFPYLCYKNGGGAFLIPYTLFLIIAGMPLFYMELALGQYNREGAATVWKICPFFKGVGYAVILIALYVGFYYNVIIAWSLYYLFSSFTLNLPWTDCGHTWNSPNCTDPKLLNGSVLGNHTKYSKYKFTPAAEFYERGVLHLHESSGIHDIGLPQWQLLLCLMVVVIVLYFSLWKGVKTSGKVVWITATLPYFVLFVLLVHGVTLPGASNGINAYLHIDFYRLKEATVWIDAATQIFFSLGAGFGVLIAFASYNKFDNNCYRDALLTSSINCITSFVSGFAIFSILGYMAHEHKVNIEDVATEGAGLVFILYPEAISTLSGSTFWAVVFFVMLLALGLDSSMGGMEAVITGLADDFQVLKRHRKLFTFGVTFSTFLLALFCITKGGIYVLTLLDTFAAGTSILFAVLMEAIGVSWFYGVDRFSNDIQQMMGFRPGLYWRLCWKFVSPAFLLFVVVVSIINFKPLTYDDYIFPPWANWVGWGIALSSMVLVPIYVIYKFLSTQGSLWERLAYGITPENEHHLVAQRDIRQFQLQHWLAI
Chain of 5-hydroxytryptamine receptor 2B (P41595 whole entry): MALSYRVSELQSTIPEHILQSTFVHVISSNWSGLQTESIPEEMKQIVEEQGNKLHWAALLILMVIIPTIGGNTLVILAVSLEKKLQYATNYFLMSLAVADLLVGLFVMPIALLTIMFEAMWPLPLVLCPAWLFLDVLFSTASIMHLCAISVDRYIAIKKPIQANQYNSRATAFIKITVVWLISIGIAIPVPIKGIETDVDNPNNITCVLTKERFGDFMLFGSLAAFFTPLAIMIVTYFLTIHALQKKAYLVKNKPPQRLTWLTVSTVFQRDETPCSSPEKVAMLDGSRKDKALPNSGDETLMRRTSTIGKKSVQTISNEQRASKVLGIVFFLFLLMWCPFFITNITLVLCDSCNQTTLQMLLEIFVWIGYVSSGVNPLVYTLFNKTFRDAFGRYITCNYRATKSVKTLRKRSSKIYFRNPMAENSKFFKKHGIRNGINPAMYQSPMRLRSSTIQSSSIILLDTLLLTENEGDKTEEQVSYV

SMILES | AC50 [1] [µM] | AC50 (Histamine H1 receptor) [µM] | AC50 [2] [µM] | AC50 [3] [µM] | AC50 [4] [µM] | AC50 (Cannabinoid receptor 1) [µM] | AC50 [5] [µM] | AC50 (D(3) dopamine receptor) [µM] | AC50 [6] [µM] | AC50 [7] [µM] | AC50 (Adenosine receptor A2a) [µM] | AC50 [8] [µM] | AC50 [9] [µM] | AC50 [10] [µM]
NS(=O)(=O)c1cc(-c2nnn[nH]2)c(NCc2cccs2)cc1Cl [AZOSEMIDE] | > 30 | > 30 | > 30 | > 30 | > 30 | > 30 | > 30 | > 30 | 19 | > 30 | > 30 | > 30 | > 30 | > 30
C[N+](C)(C)CC(=O)O [BETAINE] | > 30 | > 30 | > 30 | > 30 | > 30 | > 30 | > 30 | > 30 | > 30 | > 30 | > 30 | > 30 | > 30 | 
CCCC(=O)N1CCCN(c2nc(N)c3cc(OC)c(OC)cc3n2)CC1 [BUNAZOSIN] | > 30 | > 30 | > 30 | > 30 | > 30 | > 30 | > 30 | 21 | > 30 | > 30 | > 30 | > 30 | 0.55 | > 30
C[N+](C)(C)CCOC(N)=O [CARBAMOYLCHOLINE] | > 30 |  | > 10 | > 10 | > 10 | > 30 | > 30 | > 30 | > 30 | > 10 | > 10 | > 30 | > 10 | > 10
N[C@@H](CSCC(=O)O)C(=O)O [CARBOCYSTEINE] | > 30 | > 30 | > 30 | > 30 | > 30 | > 30 | > 30 | > 30 | > 30 | > 30 | > 30 | > 30 | > 30 | > 30
CN(C)[C@@H]1C(O)=C(C(N)=O)C(=O)[C@@]2(O)C(O)=C3C(=O)c4c(O)ccc(Cl)c4[C@@H](O)[C@H]3C[C@@H]12 [DEMECLOCYCLINE] | > 10 | > 10 | > 10 | > 30 | > 10 |  | > 30 | > 30 | > 30 | > 10 | > 10 | > 30 | > 10 | > 10

Further lines, results first:

AC50 [1] [µM] | AC50 (Histamine H1 receptor) [µM] | AC50 [2] [µM] | AC50 [3] [µM] | AC50 [4] [µM] | AC50 (Cannabinoid receptor 1) [µM] | AC50 [5] [µM] | AC50 (D(3) dopamine receptor) [µM] | AC50 [6] [µM] | AC50 [7] [µM] | AC50 (Adenosine receptor A2a) [µM] | AC50 [8] [µM] | AC50 [9] [µM] | AC50 [10] [µM] | SMILES
> 30 | 1 | 2.5 | > 30 | > 30 | > 30 | > 30 | 1.2 | > 30 |  | > 30 | > 30 | 0.89 | 1 | CC(C(O)c1ccc(O)cc1)N1CCC(Cc2ccccc2)CC1 (configuration not stated) [IFENPRODIL]
> 10 |  |  | > 10 | > 10 | > 30 | > 10 | 0.075 | 15 | > 10 | > 30 | 0.15 | 0.82 | 1.99 | CN(C)CCCN1c2ccccc2Sc2ccccc21 [PROMAZINE]
> 30 |  | > 30 | > 30 | > 30 | > 30 | > 30 | > 30 | 7.14 | > 30 | > 30 | > 30 | > 30 | > 30 | O=P(O)(O)C(O)(Cc1cccnc1)P(=O)(O)O [RISEDRONIC ACID]
> 30 | > 30 | > 30 | > 30 | > 10 |  | > 30 | > 30 | > 30 | > 10 | > 30 | > 30 | > 30 | > 10 | CC(=O)N[C@H]1[C@H]([C@H](O)[C@H](O)CO)OC(C(=O)O)=C[C@@H]1N=C(N)N [ZANAMIVIR]

Source: ChEMBL document CHEMBL5291721, “A preclinical secondary pharmacology resource illuminates target-adverse drug reaction associations of marketed drugs” (Nat Commun, 2023)
